Values joined by “and” are separate entries in the source; they are usually repeats but may differ in a detail not shown here. Identical values can stand only once.
Key:
[1] = Liver histology (H&E); assay type: in vivo; settings: mouse, in vivo
Description: 12–15 week-old C57BL/6 J mice were obtained from Jackson Laboratories and were housed on a standard 12 h light/dark cycle. Nr1i3^−/− mice with C57BL/6 J background were obtained from David Moore’s lab (PMID: 11057673) at Baylor College of Medicine, and used at 13–26 weeks of age. Wild-type male, female and Nr1i3^−/− male mice were used in this study, due to known sex-specific CAR activities. Mice were housed in groups of 2–5 mice per cage on a standard 12 h light/dark cycle and fed with rodent chow diet (Inotiv, Teklad rodent diet 2918). Temperature was maintained at 21 °C with a range of 21–24 °C and humidity at 16–51%. National Institute of Health guidelines for the care and use of laboratory animals were followed with all experiments performed as directed by the Institutional Animal Care and Use Committee at the University of Illinois, Urbana-Champaign (UIUC, IACUC protocol: 22183). Mice were acclimatized to the UIUC mouse facility for 2 weeks prior to experiments. DIM and DIE were dissolved in 5% DMSO in corn oil and injected intraperitoneally at 25 mg/kg once daily for three days. After 4 h of the third injection, mice were sacrificed to collect serum, livers and intestines. TCPOBOP was dissolved in corn oil and injected intraperitoneally at 3 mg/kg once and the livers collected after 3 days for further studies. When used to block CAR activity, 100 mg/kg androstenol was injected intraperitoneally 15 min prior to the first DIM or DIE treatment. RNA from mice livers was isolated using TRIzol (Invitrogen) reagent using the manufacturer’s instructions. 3–5 µg of RNA was used to synthesize cDNA with random primers (NEBioLabs) and Maxima Reverse Transcriptase kits (Thermo Fisher Scientific). cDNA was further diluted, and 50 ng was used for SYBR green (Thermo Fisher Scientific) based qRT-PCR. Relative gene expression was calculated by the delta Ct method and normalized to 36b4 levels as loading controls. qPCR primers for gene expression analysis are listed in Supplementary Table 3. […]

[2] = test system: mCAR target genes (cyp2b10, cyp3a11, sult2a1) in mouse liver; test: qPCR of mCAR target genes in mouse liver after intraperitoneal treatment; assay type: in vivo
Description: (§1) 12–15 week-old C57BL/6 J mice were obtained from Jackson Laboratories and were housed on a standard 12 h light/dark cycle. Nr1i3^−/− mice with C57BL/6 J background were obtained from David Moore’s lab (PMID: 11057673) at Baylor College of Medicine, and used at 13–26 weeks of age. Wild-type male, female and Nr1i3^−/− male mice were used in this study, due to known sex-specific CAR activities. Mice were housed in groups of 2–5 mice per cage on a standard 12 h light/dark cycle and fed with rodent chow diet (Inotiv, Teklad rodent diet 2918). Temperature was maintained at 21 °C with a range of 21–24 °C and humidity at 16–51%. National Institute of Health guidelines for the care and use of laboratory animals were followed with all experiments performed as directed by the Institutional Animal Care and Use Committee at the University of Illinois, Urbana-Champaign (UIUC, IACUC protocol: 22183). Mice were acclimatized to the UIUC mouse facility for 2 weeks prior to experiments. DIM and DIE were dissolved in 5% DMSO in corn oil and injected intraperitoneally at 25 mg/kg once daily for three days. After 4 h of the third injection, mice were sacrificed to collect serum, livers and intestines. TCPOBOP was dissolved in corn oil and injected intraperitoneally at 3 mg/kg once and the livers collected after 3 days for further studies. When used to block CAR activity, 100 mg/kg androstenol was injected intraperitoneally 15 min prior to the first DIM or DIE treatment. RNA from mice livers was isolated using TRIzol (Invitrogen) reagent using the manufacturer’s instructions. 3–5 µg of RNA was used to synthesize cDNA with random primers (NEBioLabs) and Maxima Reverse Transcriptase kits (Thermo Fisher Scientific). cDNA was further diluted, and 50 ng was used for SYBR green (Thermo Fisher Scientific) based qRT-PCR. Relative gene expression was calculated by the delta Ct method and normalized to 36b4 levels as loading controls. qPCR primers for gene expression analysis are listed in Supplementary Table 3.

[3] = biological target: T1, hCAR LBD-SRC1 protein (Homo sapiens, UniProt Q14994); test: Fluorescence thermal shift assay (TSA); assay type: binding; settings: for stabilization of CAR-LBD-SRC1 fusion (thermal stability): dose-response 0.4-50 µM; for Tm: diindoles at 12.5 µM, APO Tm 51.5 °C, means of triplicates
T1 construct: The human CAR LBD (Lys^108 – Ser^352) was amplified by PCR from cDNA; HIS6; made in house; host or cells: E. coli BL21(DE3)
T1 sequence (Q14994 108-352): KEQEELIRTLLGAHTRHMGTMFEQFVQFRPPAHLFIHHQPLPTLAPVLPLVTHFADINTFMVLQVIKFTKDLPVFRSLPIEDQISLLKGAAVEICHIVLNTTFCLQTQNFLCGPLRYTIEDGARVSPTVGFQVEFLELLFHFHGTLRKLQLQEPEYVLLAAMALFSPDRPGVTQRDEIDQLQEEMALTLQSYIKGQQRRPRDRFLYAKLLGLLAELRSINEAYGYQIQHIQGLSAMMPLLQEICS
Description: Purified hCAR LBD-SRC1 protein was assayed in 137 mM NaCl, 2.7 mM KCl, 10 mM Na2HPO4, and 1.8 mM KH2PO4, 0.5% DMSO, pH 7.4, at a final concentration of 2.2 µM. SYPRO Orange was used at a final concentration of 10× (Invitrogen, S6650). Each sample was divided into three 25 µL replicates. Sample solutions were dispensed into 96-well optical reaction plates (Thermo Fisher Scientific, 4306737) and sealed with optical PCR plate sheets (Thermo Fisher Scientific, AB-1170). TSA experiments were carried out using a QuantStudio 12 K Flex Real Time PCR System (Applied Biosystems). The temperature was ramped up from 25 °C to 95 °C at a rate of 0.3 °C/min, and SYPRO orange fluorescence monitored. Raw fluorescence data and melting temperatures were determined using nonlinear regression curve fitting using GraphPad Prism 9.

[4] = biological target: T2, hCAR (Homo sapiens, UniProt Q14994); test: Bottom-up HDX-MS of hCAR with ligand; assay type: binding; settings: 100 µM ligand
T2 construct: The human CAR LBD (Lys^108 – Ser^352) was amplified by PCR from cDNA; HIS6; made in house; host or cells: E. coli BL21(DE3)
T2 sequence (Q14994 108-352): T1 sequence (Q14994 108-352)
Description: Human CAR protein was prepared at 10 µM in 100 mM ammonium acetate pH 7.25 and diluted into either equilibration buffer (10 mM phosphate buffer, pH 7.5) or deuterated reaction buffer (10 mM phosphate buffer, 150 mM NaCl, pH 7.5 in D2O). After labeling times of 1, 10 or 30 min at 25 °C, samples were mixed with equal volumes of quench buffer (100 mM phosphate buffer, pH 2.5) at 0 °C. […] HDX-MS was performed using a commercial Waters HDX system (M-class ACQUITY UPLC and Water Cyclic IMS Mass Spectrometer). Leucine enkephalin was used for mass correction, and all time points were carried out in triplicate. Samples were digested using an Enzymate BEH Pepsin column (2.1 × 30 mm, Waters) at 15 °C. Peptides were desalted on an ACQUITY UPLC BEH C18 VanGuard Pre-column (2.1 × 5 mm, Waters) and separated using an ACQUITY UPLC BEH C18 column (100 × 1 mm, Waters). ProteinLynx Global server (PLGS) and DynamX software was used for peptide identification and deuterium uptake analysis, respectively. PyMOL 2.5 was used for structural visualization.

[5] = biological target: T3, GST-hCAR-LBD (Homo sapiens, UniProt Q14994); test: LanthaScreen TR-FRET PGC1α coactivator recruitment assay; assay type: biochemical
T3 construct: GST-hCAR-LBD (5 nM), terbium-labeled anti-GST antibody (5 nM); purchased Invitrogen A15141
T3 sequence (Q14994 109-352 limits assumed): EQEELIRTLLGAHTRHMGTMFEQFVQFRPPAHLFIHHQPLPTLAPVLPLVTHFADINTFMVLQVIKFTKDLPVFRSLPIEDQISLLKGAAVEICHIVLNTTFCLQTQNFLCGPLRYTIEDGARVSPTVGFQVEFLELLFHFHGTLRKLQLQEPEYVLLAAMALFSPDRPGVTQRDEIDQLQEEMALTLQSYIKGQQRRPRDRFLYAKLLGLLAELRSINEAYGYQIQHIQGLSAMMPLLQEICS
Description: LanthaScreen^TM TR-FRET hCAR coactivator assays were performed according to manufacturer’s instructions (Invitrogen, A15141). Test compounds were incubated for 2 h at room temperature with GST-hCAR-LBD (5 nM), terbium-labeled anti-GST antibody (5 nM), and Fluorescein-PGC1α coactivator peptide (125 nM). Incubations were performed in four technical replicates. TR-FRET emissions were measured using a Tecan Infinite F200 Fluorescence Microplate Reader. Results were expressed as the ratio of fluorescence intensity at 520 nm (fluorescein emission excited by terbium emissions) and 495 nm (terbium emissions).

[6] = biological target: T4, His-tagged CAR-LBD-SRC1 fusion protein (Homo sapiens, UniProt Q14994); test: Isothermal titration calorimetry (ITC); assay type: binding; settings: 25 °C; ligand 50 μM; mean of two independent experiments
T4 construct: The human CAR LBD (Lys^108 – Ser^352) was amplified by PCR from cDNA; HIS6; made in house; host or cells: E. coli BL21(DE3)
T4 sequence (Q14994 108-352): T1 sequence (Q14994 108-352)
Description: Purified hCAR-SRC1 protein (200–250 µM) was dissolved in 120 μL of PBS and supplemented with 0.5% DMSO. All experiments were performed in a MicroCal Auto-iTC200 instrument (Malvern Panalytical, Marlvern, United Kingdom) at 25 °C. Ligands were used at a concentration of 50 μM. Protein was titrated into cells in a series of 19 injections (injection 1 = 0.4 µL, injection 2–19 = 2 µL) 180 s apart. Control experiments performed by injection of the potein into […] yielded insignificant heats of dilution, and heat responses were subtracted. Integrated heat effects were analyzed using Microcal Origin 7 software (Malvern Instruments).

[7] = biological target: T5, GAL4-hCAR LBD (Homo sapiens, UniProt Q14994); test: HEK293T GAL4-hCAR dual transfection reporter assay with PK11195 (antagonist displacement); assay type: cell-based; settings: for HEK293 GAL4-hCAR EC50: basal reporter activity reduced with 1 µM PK11195
T5 construct: chimeric yeast GAL4 DBD fused to an hCAR LBD; expressed in transfected cells; host or cells: HEK293T (ATCC, CRL-3216)
T5 sequence (Q14994 109-352 limits assumed): T3 sequence (Q14994 109-352 limits assumed)
From the text: The GAL4-hCAR, UAS-Luc, pcDNA-GAL4, pGL4-Renilla-Luc and pGEM plasmids were generously provided by Dr. David Mangelsdorf. The GAL4-hCAR plasmid encodes a constitutively expressed chimeric yeast GAL4 DBD fused to an hCAR LBD. The UAS-Luc plasmid encodes a Firefly luciferase reporter under the control of a GAL4 response element. The pcDNA plasmid encodes a constitutively expressed GAL4 DBD and was used as a control vector to determine non-specific luminescence in all HEK293T cellular reporter assays. The pGL4-Renilla-Luc plasmid encodes a constitutively expressed Renilla luciferase reporter and was used as a transfection control in the HEK293T cellular reporter assays.
HEK293T cells (ATCC, CRL-3216) were seeded at a density of 40,000 cells per well in white flat-bottom 96-well microplates (Greiner CellStar, 655073) in Dulbecco’s Modified Eagle Medium (DMEM) (2.5 g/l glucose) supplemented with 10% stripped fetal bovine serum with 100 units/ml of penicillin and incubated for 24 h at 37 °C. Transfection was carried out using 0.3 µL/well of Lipofectamine 2000 (Thermo Fisher Scientific, 11668019). Cells were transfected with 10 ng/well of either pcDNA or GAL4-hCAR, 50 ng/well of UAS-Luc, 5 ng/well of pGL4-Renilla-Luc, and 85 ng/well of pGEM for a total of 150 ng/well of DNA. […] Cells were incubated for 16-hours to allow build-up of luciferase and then processed using the Dual-Glo Luciferase Assay System (Promega, E2940) as per the manufacturer’s instructions. Incubations were performed in four technical replicates.

[8] = Liver-to-body weight ratio after treatment; assay type: in vivo; settings: post-treatment, compared to control
Description: as §1

C[C@]12CC[C@@H](O)C[C@@H]1CC[C@@H]1[C@@H]2CC[C@]2(C)C=CC[C@@H]12 [And, androstenol, reference compound]
liver histology (H&E) findings [1]: occasional focal inflammation and mild cholangitis
CAR target gene expression after pre-treatment with inverse agonist ([2]; 100 mg/kg i.p. 15 min prior to first DIM or DIE treatment): greatly reduced target gene expression
sult2a1 expression in liver ([2]; WT or Nr1i3-/- mice): did not show significant responses
cyp3a11 expression in liver ([2]; mouse liver, with or without And pre-treatment): increase rather than a decrease

CC(C)(c1ccc(O)cc1)c1ccc(O)cc1 [BPA, bisphenol A, reference compound]
stabilization of CAR-LBD-SRC1 fusion (thermal stability) [3]: preferential stabilization

Clc1ccc(-c2nc3sccn3c2C=NOCc2ccc(Cl)c(Cl)c2)cc1 [CITCO, 6-(4-chlorophenyl)imidazo[2,1-b][1,3]thiazole-5-carbaldehyde-O-(3,4-dichlorobenzyl)oxime, reference compound]
stabilization of CAR-LBD-SRC1 fusion (thermal stability) [3]: no effect on thermal stability
deuterium uptake change, residues 235–243 (H12/AF2) [4]: decreased deuterium uptake
deuterium uptake difference, amino acids 217–234 (H11) [4]: > 20%
difference in deuterium uptake compared to apo hCAR, amino acids 51–65 (H3) [4]: > 20%
PGC1α cofactor recruitment [5]: able to increase PGC1α recruitment beyond ‘constitutive’ levels

CCC(c1c[nH]c2ccccc12)c1c[nH]c2ccccc12 [DIP, 3,3’-diindolylpropane]
Kd [6]: 6 µM
Tm [3]: 59.1 °C
HEK293 GAL4-hCAR EC50 [7]: Ambiguous

Clc1cnc(Oc2ccc(Oc3ncc(Cl)cc3Cl)cc2)c(Cl)c1 [TCPOBOP, 1,4-bis-[2-(3,5,-dichloropyridyloxy)] benzene, reference compound]
liver weight / liver-to-body weight ratio [8]: significantly increased
mCAR target gene activation ([2]; WT male mice, 3 mg/kg i.p. once, livers after 3 days): highly activate mCAR target genes

CC(C)C(c1c[nH]c2ccccc12)c1c[nH]c2ccccc12 [iDIB, 3,3’-diindolyl-iso-butane]
Tm [3]: 58.3 °C
HEK293 GAL4-hCAR EC50 [7]: Ambiguous

CCCC(c1c[nH]c2ccccc12)c1c[nH]c2ccccc12 [nDIB]
Kd [6]: 0.79 µM and 0.78 µM
Tm [3]: 57.7 °C
EC50 ([7]; read-out: HEK293 GAL4-hCAR EC50): 2.36 µM
